In PubChem BioAssay AID2060907 (Molecular Pharmacology Branch, DTP, NCI, 2025):

Test system: 388556-164-R-J1-PDC complex spheroid viability
Experiment: Anticancer human tumor 388556-164-R-J1-PDC patient-derived colon adenocarcinoma cell line growth inhibition [RAS]
Details: for IC50: curve of first compound; for viability, T/C: stronger effect = lower value; active = viability on the fitted dose curve at most 10% of control; inactive = the rest
Outline: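 Agents were tested in combination matrices in half-log decrements from a top concentration at or near clinical Cmax (10 microM if undetermined). Targets were multi-cell spheroids of tumour lines plus HUVEC and MSC stromal cells.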

[1] = second compound 0.000949 µM, first compound 0.0316 µM
[2] = second compound 0.000949 µM, first compound 0.1 µM
[3] = second compound 0.000949 µM, first compound 0.316 µM
[4] = second compound 0.000949 µM, first compound 1 µM
[5] = second compound 0.000949 µM, first compound 3.16 µM
[6] = second compound 0.000949 µM, first compound 10 µM
[7] = second compound 0.003 µM, first compound 0.0316 µM
[8] = second compound 0.003 µM, first compound 0.1 µM
[9] = second compound 0.003 µM, first compound 0.316 µM
[10] = second compound 0.003 µM, first compound 1 µM
[11] = second compound 0.003 µM, first compound 3.16 µM
[12] = second compound 0.003 µM, first compound 10 µM
[13] = second compound 0.00949 µM, first compound 0.0316 µM
[14] = second compound 0.00949 µM, first compound 0.1 µM
[15] = second compound 0.00949 µM, first compound 0.316 µM
[16] = second compound 0.00949 µM, first compound 1 µM
[17] = second compound 0.00949 µM, first compound 3.16 µM
[18] = second compound 0.00949 µM, first compound 10 µM
[19] = second compound 0.03 µM, first compound 0.0316 µM
[20] = second compound 0.03 µM, first compound 0.1 µM
[21] = second compound 0.03 µM, first compound 0.316 µM
[22] = second compound 0.03 µM, first compound 1 µM
[23] = second compound 0.03 µM, first compound 3.16 µM
[24] = second compound 0.03 µM, first compound 10 µM
[25] = second compound 0.0949 µM, first compound 0.0316 µM
[26] = second compound 0.0949 µM, first compound 0.1 µM
[27] = second compound 0.0949 µM, first compound 0.316 µM
[28] = second compound 0.0949 µM, first compound 1 µM
[29] = second compound 0.0949 µM, first compound 3.16 µM
[30] = second compound 0.0949 µM, first compound 10 µM
[31] = second compound 0.3 µM, first compound 0.0316 µM
[32] = second compound 0.3 µM, first compound 0.1 µM
[33] = second compound 0.3 µM, first compound 0.316 µM
[34] = second compound 0.3 µM, first compound 1 µM
[35] = second compound 0.3 µM, first compound 3.16 µM
[36] = second compound 0.3 µM, first compound 10 µM
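Also: spheroids exposed to compound for 7 days before readout.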
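For viability, T/C in this document: 100% = DMSO vehicle control luminescence.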

CCC(CC)c1cc(NC2CCC(N)C2)n2nccc2n1 (stereo not given) + CCn1c(-c2cccnc2C(C)OC)c2c3cc(ccc31)N1CCOC(CC(NC(=O)C(C(C)C)N(C)C(=O)C3(F)CCN(C(=O)C#CC(C)(C)N(C)C)CC3)C(=O)N3CCCC(N3)C(=O)OCC(C)(C)C2)C1
5.17 µM: IC50 (second compound 0.00949 µM)
4.85 µM: IC50 (second compound 0.000949 µM)
4.12 µM: IC50 (second compound 0.03 µM)
inactive: viability, T/C [1] 101% | viability, T/C [2] 95.6% | viability, T/C [3] 104% | viability, T/C [4] 106% | viability, T/C [5] 60.2% | viability, T/C [6] 32.8% | viability, T/C [7] 113% | viability, T/C [8] 105% | viability, T/C [9] 100% | viability, T/C [10] 104% | viability, T/C [11] 57.6% | viability, T/C [12] 31.9% | viability, T/C [13] 112% | viability, T/C [14] 106% | viability, T/C [15] 102% | viability, T/C [16] 93.2% | viability, T/C [17] 64% | viability, T/C [18] 30.4% | viability, T/C [19] 105% | viability, T/C [20] 102% | viability, T/C [21] 107% | viability, T/C [22] 106% | viability, T/C [23] 54.3% | viability, T/C [24] 35.6% | viability, T/C [25] 110% | viability, T/C [26] 87.3% | viability, T/C [27] 100% | viability, T/C [28] 103% | viability, T/C [29] 58.3% | viability, T/C [30] 34.8% | viability, T/C [31] 101% | viability, T/C [32] 89.9% | viability, T/C [33] 92.6% | viability, T/C [34] 91.6% | viability, T/C [35] 47.2% | viability, T/C [36] 34.4%
4.76 µM: IC50 (second compound 0.0949 µM)
2.94 µM: IC50 (second compound 0.3 µM)
4.46 µM: IC50 (second compound 0.003 µM)

C[C@@H](NC(=O)c1ncnc(N)c1Cl)c1ncc(C(=O)Nc2cc(C(F)(F)F)c(Cl)cn2)s1 + CCn1c(-c2cccnc2C(C)OC)c2c3cc(ccc31)N1CCOC(CC(NC(=O)C(C(C)C)N(C)C(=O)C3(F)CCN(C(=O)C#CC(C)(C)N(C)C)CC3)C(=O)N3CCCC(N3)C(=O)OCC(C)(C)C2)C1
inactive: viability, T/C [1] 113% | viability, T/C [2] 113% | viability, T/C [3] 115% | viability, T/C [4] 123% | viability, T/C [5] 117% | viability, T/C [6] 94.7% | viability, T/C [7] 117% | viability, T/C [8] 102% | viability, T/C [9] 119% | viability, T/C [10] 108% | viability, T/C [11] 121% | viability, T/C [12] 96.7% | viability, T/C [13] 105% | viability, T/C [14] 109% | viability, T/C [15] 113% | viability, T/C [16] 108% | viability, T/C [17] 123% | viability, T/C [18] 105% | viability, T/C [19] 113% | viability, T/C [20] 102% | viability, T/C [21] 102% | viability, T/C [22] 109% | viability, T/C [23] 117% | viability, T/C [24] 91.1% | viability, T/C [25] 93.4% | viability, T/C [26] 115% | viability, T/C [27] 110% | viability, T/C [28] 119% | viability, T/C [29] 113% | viability, T/C [30] 90.7% | viability, T/C [31] 87.3% | viability, T/C [32] 108% | viability, T/C [33] 99.6% | viability, T/C [34] 104% | viability, T/C [35] 115% | viability, T/C [36] 88%
> 10 µM: IC50 (second compound 0.000949 µM) | IC50 (second compound 0.003 µM) | IC50 (second compound 0.00949 µM) | IC50 (second compound 0.03 µM) | IC50 (second compound 0.0949 µM) | IC50 (second compound 0.3 µM)

Cc1nc(N2CCC3(CC2)COC(C)C3N)c(CO)nc1Sc1ccnc(N)c1Cl (stereo not given) + CCn1c(-c2cccnc2C(C)OC)c2c3cc(ccc31)N1CCOC(CC(NC(=O)C(C(C)C)N(C)C(=O)C3(F)CCN(C(=O)C#CC(C)(C)N(C)C)CC3)C(=O)N3CCCC(N3)C(=O)OCC(C)(C)C2)C1
> 10 µM: IC50 (second compound 0.000949 µM)
5.74 µM: IC50 (second compound 0.03 µM)
3.95 µM: IC50 (second compound 0.0949 µM)
inactive: viability, T/C [1] 97.1% | viability, T/C [2] 95.6% | viability, T/C [3] 77.4% | viability, T/C [4] 55.2% | viability, T/C [5] 56% | viability, T/C [6] 47.1% | viability, T/C [7] 108% | viability, T/C [8] 93.9% | viability, T/C [9] 76.7% | viability, T/C [10] 66.4% | viability, T/C [11] 56% | viability, T/C [12] 44.6% | viability, T/C [13] 91.5% | viability, T/C [14] 99.9% | viability, T/C [15] 82.9% | viability, T/C [16] 61.7% | viability, T/C [17] 57.3% | viability, T/C [18] 43.7% | viability, T/C [19] 105% | viability, T/C [20] 98.7% | viability, T/C [21] 75.6% | viability, T/C [22] 63.4% | viability, T/C [23] 56.4% | viability, T/C [24] 45.1% | viability, T/C [25] 90.1% | viability, T/C [26] 95% | viability, T/C [27] 75% | viability, T/C [28] 62.8% | viability, T/C [29] 56% | viability, T/C [30] 40.5% | viability, T/C [31] 92.5% | viability, T/C [32] 86.7% | viability, T/C [33] 65.2% | viability, T/C [34] 55.6% | viability, T/C [35] 52.4% | viability, T/C [36] 40.1%
5.69 µM: IC50 (second compound 0.003 µM)
4.81 µM: IC50 (second compound 0.00949 µM)
2.34 µM: IC50 (second compound 0.3 µM)

NC1c2ccccc2OC12CCN(c1cnc3c(N4CCCc5ncccc54)n[nH]c3n1)CC2 (stereo not given) + CCn1c(-c2cccnc2C(C)OC)c2c3cc(ccc31)N1CCOC(CC(NC(=O)C(C(C)C)N(C)C(=O)C3(F)CCN(C(=O)C#CC(C)(C)N(C)C)CC3)C(=O)N3CCCC(N3)C(=O)OCC(C)(C)C2)C1
0.192 µM: IC50 (second compound 0.000949 µM)
inactive: viability, T/C [1] 63.8% | viability, T/C [2] 54.9% | viability, T/C [3] 46% | viability, T/C [4] 40.4% | viability, T/C [5] 44% | viability, T/C [6] 35.3% | viability, T/C [7] 70.6% | viability, T/C [8] 56.3% | viability, T/C [9] 49.1% | viability, T/C [10] 37.1% | viability, T/C [11] 36.2% | viability, T/C [12] 33% | viability, T/C [13] 77.8% | viability, T/C [14] 57.9% | viability, T/C [15] 47.1% | viability, T/C [16] 41.5% | viability, T/C [17] 42% | viability, T/C [18] 35.9% | viability, T/C [19] 73.1% | viability, T/C [20] 50.4% | viability, T/C [21] 44.6% | viability, T/C [22] 38.5% | viability, T/C [23] 37.2% | viability, T/C [24] 35.4% | viability, T/C [25] 66.8% | viability, T/C [26] 56.3% | viability, T/C [27] 43.5% | viability, T/C [28] 38.1% | viability, T/C [29] 36.4% | viability, T/C [30] 31.8% | viability, T/C [31] 59.7% | viability, T/C [32] 49.6% | viability, T/C [33] 42.8% | viability, T/C [34] 35.1% | viability, T/C [35] 30.6% | viability, T/C [36] 27.6%
0.18 µM: IC50 (second compound 0.0949 µM)
0.239 µM: IC50 (second compound 0.00949 µM)
0.22 µM: IC50 (second compound 0.003 µM)
0.129 µM: IC50 (second compound 0.03 µM)
0.1 µM: IC50 (second compound 0.3 µM)

Nc1ccn(C2OC(CO)C(O)C2(F)F)c(=O)n1 (stereo not given) + CCn1c(-c2cccnc2C(C)OC)c2c3cc(ccc31)N1CCOC(CC(NC(=O)C(C(C)C)N(C)C(=O)C3(F)CCN(C(=O)C#CC(C)(C)N(C)C)CC3)C(=O)N3CCCC(N3)C(=O)OCC(C)(C)C2)C1
> 1 µM: IC50 (second compound 0.000949 µM) | IC50 (second compound 0.003 µM) | IC50 (second compound 0.00949 µM) | IC50 (second compound 0.03 µM) | IC50 (second compound 0.0949 µM) | IC50 (second compound 0.3 µM)
inactive: viability, T/C (second compound 0.000949 µM, first compound 0.00316 µM) 96% | viability, T/C (second compound 0.000949 µM, first compound 0.01 µM) 85.5% | viability, T/C [1] 77.4% | viability, T/C [2] 71.8% | viability, T/C [3] 71.6% | viability, T/C [4] 64.1% | viability, T/C (second compound 0.003 µM, first compound 0.00316 µM) 102% | viability, T/C (second compound 0.003 µM, first compound 0.01 µM) 90.5% | viability, T/C [7] 76.8% | viability, T/C [8] 72.1% | viability, T/C [9] 72.4% | viability, T/C [10] 65.8% | viability, T/C (second compound 0.00949 µM, first compound 0.00316 µM) 99.1% | viability, T/C (second compound 0.00949 µM, first compound 0.01 µM) 91.8% | viability, T/C [13] 78.6% | viability, T/C [14] 69.4% | viability, T/C [15] 70% | viability, T/C [16] 64.5% | viability, T/C (second compound 0.03 µM, first compound 0.00316 µM) 98.4% | viability, T/C (second compound 0.03 µM, first compound 0.01 µM) 92.7% | viability, T/C [19] 79% | viability, T/C [20] 67.5% | viability, T/C [21] 70.6% | viability, T/C [22] 61.7% | viability, T/C (second compound 0.0949 µM, first compound 0.00316 µM) 90.6% | viability, T/C (second compound 0.0949 µM, first compound 0.01 µM) 86.3% | viability, T/C [25] 74.7% | viability, T/C [26] 67.6% | viability, T/C [27] 68.1% | viability, T/C [28] 62.2% | viability, T/C (second compound 0.3 µM, first compound 0.00316 µM) 81.7% | viability, T/C (second compound 0.3 µM, first compound 0.01 µM) 78% | viability, T/C [31] 69.8% | viability, T/C [32] 68.4% | viability, T/C [33] 67.2% | viability, T/C [34] 59.5%
